In patent publication US20040259096A1, “Receptor capture assay” (priority 2001, published 2004):

System: AhR
Test: Receptor capture assay, end-point PCR with anti-DIG time-resolved fluorescence detection, Hepa 1c1c7 cell extract
Type: biochemical, murine
Description: End-point PCR may also be utilized for dioxins. Calibrators containing 10, 100, 1000 fmol of 2,3,7,8-tetrachlorodibenzo-p-dioxin (TCDD) were prepared and 1 μl of each calibrator was dispensed into a glass test tube.
An extract from Hepa 1c1c7 cells was prepared as described by Example 1 to provide AhR for the assays. 100 μl NEAT to 0.5 μl of Hepa 1c1c7 cell extract diluted in Assay Buffer was added to each tube, thoroughly mixed, and the tubes were capped, or covered with Parafilm™. The samples were then incubated at room temperature to 37° C. for 30 min to 2 hr. Salt and salmon sperm DNA was then added to the AhR reaction medium in concentrations of 50 mM to 200 mM and 5 to 100 μg/ml, respectively. The samples were then incubated for a period ranging from 0-20 minutes at room temperature. Nucleic acid-tracer (1 nM) was added and mixed gently to allow complex formation between activated AhR and nucleic acid-tracer, where TCCD was present. The reaction tubes were incubated for a time ranging from 10 min to 1 hour, at room temperature.
Capture Strips coated with anti-ARNT antibody were prepared as described in Example 1. An aliquot of AhR reaction medium (25 to 100 μl) from each glass tube was then transferred to a corresponding well of the Capture Strip. The Capture Strips were incubated for an additional 30 min to 1 hour at room temperature, with shaking. Unbound nucleic acid-tracer was rigorously removed by washing wells five times with Wash Buffer B, optionally soaking wells for 30 sec-5 min with wash buffer during each cycle. The strips may be shaken during the soak step if desired. The strips were washed twice with water, with all liquids aspirated at the finish.
The nucleic acid-tracer remaining in the Capture Strip was PCR amplified by the following method: A PCR Master Mix was assembled with the following final concentrations: 1×PCR buffer with 1.5 mM MgCl2, 0.2 mM dATP, dCTP, dGTP, 0.15 mM dTTP, 0.05 mM DIG-dUTP (Roche, Indianapolis, Ind.), 0.5 μM each primer (PRI 1A and PRI 1B), […] Taq polymerase. The Master Mix was aliquoted 30-50 μl per well, then tape applied to seal the wells. The thermocycler profile was: 94° C., 20 sec, 15 cycles of [94° C., 30 sec, 52° C., 30 sec, 72° C. 30 sec], then 72° C., 30 sec and chilled to 4° C.
Ten μl of PCR sample was assayed by ELISA-PCR with anti-DIG detection as follows.
The PCR sample was diluted to 30 μl with water in 0.2 ml tube. The sample was heated 95° C. for 3-5 min. The immobilization (capture) probe was:
The probe was diluted to 10 nM in Hybridization Buffer (0.5× Assay Buffer, 0.5 M NaCl). The probe (100 μl=1 pmol) was then added to the hot samples, mixed, and incubated at 37° C. for 45 min.
The sample was transferred to a pre-washed streptavidin-coated microtiter wells in the form of strips or plates obtained from DELFIA catalog number 4009-0010 (Wallac, Finland) and shaken for 45 min. at room temperature. Strips or plates were washed three times with Wallac Wash Buffer (DELFIA wash concentrate, catalog number 13800865, Wallac, Finland). The Wallac Wash Buffer (1×) for the automated plate washer was made from 25× Wash Concentrate (Wallac), which contains Tris, NaCl, and TWEEN-20.
Anti-DIG antibody (Sigma Chemical Co, St. Louis, Mo.) was diluted 1/1000 in Assay Buffer and 100 μl added to each well, and strips were shaken for 30 min. […] Samples were counted on a Victor 2 multilabel counter/plate reader (catalog number 1420-012, Wallac, Finland) using time-resolved fluorescence. […]

Compound | DNA signal over DMSO control (BNF in DMSO added to Hepa 1c1c7 cell extract) | Counts (time-resolved fluorescence) (TCDD 1 fmol) | Counts (time-resolved fluorescence) (TCDD 10 fmol) | Counts (time-resolved fluorescence) (TCDD 100 fmol) | Counts (time-resolved fluorescence) (TCDD 1000 fmol)
O=c1cc(-c2ccccc2)oc2ccc3ccccc3c12 [BNF, beta-naphthoflavone] | significantly and reproducibly increased the DNA signal | – | – | – | –
Clc1cc2c(cc1Cl)Oc1cc(Cl)c(Cl)cc1O2 [TCDD, 2,3,7,8-tetrachlorodibenzo-p-dioxin] | – | 5770 | 17287 | 100645 | 504879
